# Laboratory results as given in patent US20220281848A1, “PYRAZOLE-SUBSTITUTED PYRROLIDINONES AS HERBICIDES” (FMC Corporation, priority 2019, published 2022).
# System: plants
# Test: Test D pre-emergence, other plants of Tables D1 and D3
# Type: in vivo
# Details: for damage to plant (100=total damage to plant; 0=no damage to plant), SORVU: preemergent, 20 DAA; for damage to plant, ALOMY / damage to plant, AVEFA / damage to plant, BEAVA / damage to plant, BROTE / damage to plant, BRSNN / damage to plant, CHEAL / damage to plant, GALAP / damage to plant, HORVW / damage to plant, KCHSC / damage to plant, LOLPE / damage to plant, POAAN / damage to plant, POLCO / damage to plant, SINAR / damage to plant, STEME / damage to plant, VERPE: pre-emergence, 100=total damage, 0=no damage
# In short: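 Damage was rated visually from 0 (none) to 100 (total), at 20 DAA for pre-emergence and 15 d for post-emergence. Plants grew from safener-treated seed in a glasshouse at 24/18° C. or 20/16° C. day/night, 65% humidity, watered twice daily.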
structure (smiles),measurement,setting,value
CCn1nc([C@H]2CN(C)C(=O)[C@@H]2C(=O)Nc2cccc(F)c2F)c2c(F)cccc21 [Compound 7],"damage to plant (100=total damage to plant; 0=no damage to plant), SORVU",rate 130,20
same,"damage to plant (100=total damage to plant; 0=no damage to plant), SORVU",rate 250,70
same,"damage to plant (100=total damage to plant; 0=no damage to plant), SORVU",rate 500,80
same,"damage to plant, ALOMY","rate 15, 20 DAA",0
same,"damage to plant, AVEFA","rate 15, 20 DAA",0
same,"damage to plant, BEAVA","rate 15, 20 DAA",0
same,"damage to plant, BROTE","rate 15, 20 DAA",0
same,"damage to plant, BRSNN","rate 15, 20 DAA",0
same,"damage to plant, CHEAL","rate 15, 20 DAA",0
same,"damage to plant, GALAP","rate 15, 20 DAA",0
same,"damage to plant, HORVW","rate 15, 20 DAA",0
same,"damage to plant, KCHSC","rate 15, 20 DAA",0
same,"damage to plant, LOLPE","rate 15, 20 DAA",0
same,"damage to plant, POAAN","rate 15, 20 DAA",0
same,"damage to plant, POLCO","rate 15, 20 DAA",0
same,"damage to plant, SINAR","rate 15, 20 DAA",0
same,"damage to plant, STEME","rate 15, 20 DAA",0
same,"damage to plant, VERPE","rate 15, 20 DAA",0
same,"damage to plant, ALOMY","rate 30, 20 DAA",0
same,"damage to plant, AVEFA","rate 30, 20 DAA",0
same,"damage to plant, BEAVA","rate 30, 20 DAA",0
same,"damage to plant, BROTE","rate 30, 20 DAA",0
same,"damage to plant, BRSNN","rate 30, 20 DAA",0
same,"damage to plant, CHEAL","rate 30, 20 DAA",0
same,"damage to plant, GALAP","rate 30, 20 DAA",0
same,"damage to plant, HORVW","rate 30, 20 DAA",0
same,"damage to plant, KCHSC","rate 30, 20 DAA",0
same,"damage to plant, LOLPE","rate 30, 20 DAA",0
same,"damage to plant, POAAN","rate 30, 20 DAA",0
same,"damage to plant, POLCO","rate 30, 20 DAA",0
same,"damage to plant, SINAR","rate 30, 20 DAA",0
same,"damage to plant, STEME","rate 30, 20 DAA",0
same,"damage to plant, VERPE","rate 30, 20 DAA",0
same,"damage to plant, ALOMY","rate 60, 20 DAA",0
same,"damage to plant, AVEFA","rate 60, 20 DAA",0
same,"damage to plant, BEAVA","rate 60, 20 DAA",0
same,"damage to plant, BROTE","rate 60, 20 DAA",0
same,"damage to plant, BRSNN","rate 60, 20 DAA",0
same,"damage to plant, CHEAL","rate 60, 20 DAA",0
same,"damage to plant, GALAP","rate 60, 20 DAA",0
same,"damage to plant, HORVW","rate 60, 20 DAA",0
same,"damage to plant, KCHSC","rate 60, 20 DAA",0
same,"damage to plant, LOLPE","rate 60, 20 DAA",0
same,"damage to plant, POAAN","rate 60, 20 DAA",0
same,"damage to plant, POLCO","rate 60, 20 DAA",0
same,"damage to plant, SINAR","rate 60, 20 DAA",0
same,"damage to plant, STEME","rate 60, 20 DAA",0
same,"damage to plant, VERPE","rate 60, 20 DAA",0
same,"damage to plant, ALOMY","rate 130, 20 DAA",0
same,"damage to plant, AVEFA","rate 130, 20 DAA",10
same,"damage to plant, BEAVA","rate 130, 20 DAA",0
same,"damage to plant, BROTE","rate 130, 20 DAA",0
same,"damage to plant, BRSNN","rate 130, 20 DAA",0
same,"damage to plant, CHEAL","rate 130, 20 DAA",0
same,"damage to plant, GALAP","rate 130, 20 DAA",0
same,"damage to plant, HORVW","rate 130, 20 DAA",0
same,"damage to plant, KCHSC","rate 130, 20 DAA",0
same,"damage to plant, LOLPE","rate 130, 20 DAA",0
same,"damage to plant, POAAN","rate 130, 20 DAA",0
same,"damage to plant, POLCO","rate 130, 20 DAA",0
same,"damage to plant, SINAR","rate 130, 20 DAA",0
same,"damage to plant, STEME","rate 130, 20 DAA",0
same,"damage to plant, VERPE","rate 130, 20 DAA",0
same,"damage to plant, ALOMY","rate 250, 20 DAA",0
same,"damage to plant, AVEFA","rate 250, 20 DAA",20
same,"damage to plant, BEAVA","rate 250, 20 DAA",0
same,"damage to plant, BROTE","rate 250, 20 DAA",0
same,"damage to plant, BRSNN","rate 250, 20 DAA",0
same,"damage to plant, CHEAL","rate 250, 20 DAA",0
same,"damage to plant, GALAP","rate 250, 20 DAA",0
same,"damage to plant, HORVW","rate 250, 20 DAA",0
same,"damage to plant, KCHSC","rate 250, 20 DAA",0
same,"damage to plant, LOLPE","rate 250, 20 DAA",0
same,"damage to plant, POAAN","rate 250, 20 DAA",0
same,"damage to plant, POLCO","rate 250, 20 DAA",0
same,"damage to plant, SINAR","rate 250, 20 DAA",0
same,"damage to plant, STEME","rate 250, 20 DAA",0
same,"damage to plant, VERPE","rate 250, 20 DAA",0
same,"damage to plant, ALOMY","rate 500, 20 DAA",0
same,"damage to plant, AVEFA","rate 500, 20 DAA",50
same,"damage to plant, BEAVA","rate 500, 20 DAA",0
same,"damage to plant, BROTE","rate 500, 20 DAA",0
same,"damage to plant, BRSNN","rate 500, 20 DAA",0
same,"damage to plant, CHEAL","rate 500, 20 DAA",0
same,"damage to plant, GALAP","rate 500, 20 DAA",0
same,"damage to plant, HORVW","rate 500, 20 DAA",0
same,"damage to plant, KCHSC","rate 500, 20 DAA",0
same,"damage to plant, LOLPE","rate 500, 20 DAA",0
same,"damage to plant, POAAN","rate 500, 20 DAA",0
same,"damage to plant, POLCO","rate 500, 20 DAA",0
same,"damage to plant, SINAR","rate 500, 20 DAA",0
same,"damage to plant, STEME","rate 500, 20 DAA",0
same,"damage to plant, VERPE","rate 500, 20 DAA",0
